# According to BindingDB's records for doi:10.1016/j.bioorg.2015.05.007 (Silesian University of Technology, 2015):
# Target: T1, Chitin synthase 3 (Saccharomyces cerevisiae (strain ATCC 204508 / S288c), UniProt P29465)
# T1 sequence (P29465 whole entry): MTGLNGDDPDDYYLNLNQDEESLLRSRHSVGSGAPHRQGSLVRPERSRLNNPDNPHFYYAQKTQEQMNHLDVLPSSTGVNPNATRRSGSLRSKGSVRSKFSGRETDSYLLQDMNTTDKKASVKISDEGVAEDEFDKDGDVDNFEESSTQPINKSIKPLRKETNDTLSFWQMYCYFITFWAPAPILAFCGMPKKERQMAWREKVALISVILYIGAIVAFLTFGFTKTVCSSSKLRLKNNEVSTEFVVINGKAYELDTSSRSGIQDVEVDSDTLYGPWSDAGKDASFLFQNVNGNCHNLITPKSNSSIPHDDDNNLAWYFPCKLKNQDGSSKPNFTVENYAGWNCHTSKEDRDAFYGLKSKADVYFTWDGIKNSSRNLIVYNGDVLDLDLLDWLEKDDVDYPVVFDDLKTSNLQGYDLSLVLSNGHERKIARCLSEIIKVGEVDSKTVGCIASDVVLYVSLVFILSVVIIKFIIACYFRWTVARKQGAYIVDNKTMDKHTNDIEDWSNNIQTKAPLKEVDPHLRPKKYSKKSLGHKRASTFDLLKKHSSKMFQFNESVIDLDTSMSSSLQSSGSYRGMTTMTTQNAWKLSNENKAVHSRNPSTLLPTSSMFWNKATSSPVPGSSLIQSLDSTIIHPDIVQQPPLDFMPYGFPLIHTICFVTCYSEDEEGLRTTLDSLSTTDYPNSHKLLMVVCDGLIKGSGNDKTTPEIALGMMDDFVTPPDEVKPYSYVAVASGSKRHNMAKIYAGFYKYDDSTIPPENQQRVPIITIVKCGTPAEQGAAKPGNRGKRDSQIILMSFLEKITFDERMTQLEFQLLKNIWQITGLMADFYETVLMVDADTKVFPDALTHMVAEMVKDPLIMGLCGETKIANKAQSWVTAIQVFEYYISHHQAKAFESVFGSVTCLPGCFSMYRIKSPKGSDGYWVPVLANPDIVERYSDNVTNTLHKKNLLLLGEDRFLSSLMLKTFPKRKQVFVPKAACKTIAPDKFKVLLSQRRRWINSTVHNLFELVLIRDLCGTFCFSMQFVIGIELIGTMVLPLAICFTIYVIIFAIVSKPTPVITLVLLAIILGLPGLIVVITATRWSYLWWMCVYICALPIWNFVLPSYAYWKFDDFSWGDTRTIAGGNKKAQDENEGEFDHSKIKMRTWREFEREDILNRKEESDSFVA
# Assay: Chitin Synthase Assays
# Conditions: pH 7.5; 25 °C
# Experimental: Assays were performed in 96-wells microtiter plate with flat bottom. To each well of the plate, 100 µL of WGA solution was added at 50 µg/mL. After incubation at room temperature for at least 16 h the WGA solution was removed by triple washing with distill water. Wells were then blocked by adding 300 µL of BSA blocking buffer (20 mg/mL, 50 mM Tris-HCl, pH 7.5) and incubated for 3 h at room temperature. Microtiter plates were stored until use at -20 °C in blocking buffer. Before usage plates were thawed at 25 °C and thoroughly emptied. The standard reaction mixture in total volume 100 µL contains: UDP-GlcNAc (2.0 mM), GlcNAc (40 mM), MgCl2 (5.0 mM) and digitonin (0.1% w/v) dissolved in pH 7.5 Tris-HCl buffer (50 mM) containing test compounds at a range of concentrations from 0 mM (control) to 3.0 mM. The enzymatic reactions were started by the addition of 0.2 mg/mL solution of trypsin (1-10 µL) and membrane preparation (5-20 µL). Usually four different concentrations of trypsin were te
row,SMILES,IC50
1,O=C(CCC(=O)NCC(=O)NC[C@H]1O[C@@H](n2ccc(=O)[nH]c2=O)[C@@H](O)C1O)NCC(=O)NC[C@H]1O[C@@H](n2ccc(=O)[nH]c2=O)[C@@H](O)C1O (some centres not stated) [Dimer 15 (15)],3000 µM
2,COC(=O)CCC(=O)NC[C@H]1O[C@@H](n2ccc(=O)[nH]c2=O)[C@@H](O)C1O (some centres not stated) [5'-(N-succinyl)-5'-amino-5'-deoxyuridine methyl ester (7)],800 µM
